# Source: PubChem BioAssay (NCI)
#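 Exposure lasted 48 hours, with cells grown in 96-well plates and compounds tested at five concentrations. TGI denotes the concentration required for complete inhibition of growth.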
# Assays:
# Test in all cases: growth of human tumour cells (NCI), 48 h
# [1] = system: 786-0 renal
# [2] = system: A498 renal
# [3] = system: A549 NSCLC
# [4] = system: ACHN renal
# [5] = system: BT-549 breast
# [6] = system: CAKI-1 renal
# [7] = system: CCRF-CEM leukemia
# [8] = system: COLO 205 colon
# [9] = system: EKVX NSCLC
# [10] = system: HCC-2998 colon
# [11] = system: HCT-116 colon
# [12] = system: HCT-15 colon
# [13] = system: HL-60(TB) leukemia
# [14] = system: HOP-62 NSCLC
# [15] = system: HT29 colon
# [16] = system: IGROV1 ovarian
# [17] = system: K-562 leukemia
# [18] = system: KM12 colon
# [19] = system: LOX IMVI melanoma
# [20] = system: M14 melanoma
# [21] = system: MALME-3M melanoma
# [22] = system: MCF7 breast
# [23] = system: MDA-MB-231 breast
# [24] = system: MDA-MB-435
# [25] = system: MDA-N
# [26] = system: MOLT-4 leukemia
# [27] = system: NCI-H226 lung
# [28] = system: NCI-H23 lung
# [29] = system: NCI-H522 lung
# [30] = system: NCI/ADR-RES ovarian
# [31] = system: OVCAR-3 ovarian
# [32] = system: OVCAR-4 ovarian
# [33] = system: OVCAR-5 ovarian
# [34] = system: OVCAR-8 ovarian
# [35] = system: PC-3 prostate
# [36] = system: RPMI-8226 leukemia
# [37] = system: SF-295 CNS
# [38] = system: SF-539 CNS
# [39] = system: SK-MEL-2 melanoma
# [40] = system: SK-MEL-28 melanoma
# [41] = system: SK-MEL-5 melanoma
# [42] = system: SK-OV-3 ovarian
# [43] = system: SN12C renal
# [44] = system: SNB-75 CNS
# [45] = system: SR leukemia
# [46] = system: SW-620 colon
# [47] = system: T-47D breast
# [48] = system: TK-10 renal
# [49] = system: U251 CNS
# [50] = system: UACC-257 melanoma
# [51] = system: UACC-62 melanoma
# [52] = system: UO-31 renal
# [53] = system: DU-145 prostate
# [54] = system: NCI-H460 lung
# [55] = system: RXF 393 renal
# [56] = system: SF-268 CNS
# [57] = system: HOP-92 NSCLC
# [58] = system: SNB-19 CNS
smiles,measurement,setting,value
O=C(O)c1ccccc1SCc1cccc2c(=O)c3ccc(Cl)cc3oc12,TGI,[1],> 50 µM
same,TGI,[2],> 50 µM
same,TGI,[3],> 50 µM
same,TGI,[4],> 50 µM
same,TGI,[5],> 50 µM
same,TGI,[6],> 50 µM
same,TGI,[7],> 50 µM
same,TGI,[8],> 50 µM
same,TGI,[9],> 50 µM
same,TGI,[10],> 50 µM
same,TGI,[11],> 50 µM
same,TGI,[12],> 50 µM
same,TGI,[13],27.7 µM
same,TGI,[14],47.3 µM
same,TGI,[15],> 50 µM
same,TGI,[16],> 50 µM
same,TGI,[17],> 50 µM
same,TGI,[18],> 50 µM
same,TGI,[19],> 50 µM
same,TGI,[20],> 50 µM
same,TGI,[21],44.9 µM
same,TGI,[22],> 50 µM
same,TGI,[23],> 50 µM
same,TGI,[24],> 50 µM
same,TGI,[25],> 50 µM
same,TGI,[26],> 50 µM
same,TGI,[27],> 50 µM
same,TGI,[28],> 50 µM
same,TGI,[29],> 50 µM
same,TGI,[30],> 50 µM
same,TGI,[31],> 50 µM
same,TGI,[32],> 50 µM
same,TGI,[33],> 50 µM
same,TGI,[34],> 50 µM
same,TGI,[35],> 50 µM
same,TGI,[36],> 50 µM
same,TGI,[37],> 50 µM
same,TGI,[38],> 50 µM
same,TGI,[39],> 50 µM
same,TGI,[40],> 50 µM
same,TGI,[41],> 50 µM
same,TGI,[42],> 50 µM
same,TGI,[43],> 50 µM
same,TGI,[44],> 50 µM
same,TGI,[45],> 50 µM
same,TGI,[46],> 50 µM
same,TGI,[47],> 50 µM
same,TGI,[48],> 50 µM
same,TGI,[49],> 50 µM
same,TGI,[50],> 50 µM
same,TGI,[51],> 50 µM
same,TGI,[52],> 50 µM
O=c1oc2ccccc2c(O)c1/C=N/C(=S)Nc1ccccc1,TGI,[2],> 100 µM
same,TGI,[3],> 100 µM
same,TGI,[4],> 100 µM
same,TGI,[7],> 100 µM
same,TGI,[8],> 100 µM
same,TGI,[53],> 100 µM
same,TGI,[9],> 100 µM
same,TGI,[10],> 100 µM
same,TGI,[11],> 100 µM
same,TGI,[12],> 100 µM
same,TGI,[14],> 100 µM
same,TGI,[17],> 100 µM
same,TGI,[18],> 100 µM
same,TGI,[19],> 100 µM
same,TGI,[20],> 100 µM
same,TGI,[23],> 100 µM
same,TGI,[25],> 100 µM
same,TGI,[26],> 100 µM
same,TGI,[27],> 100 µM
same,TGI,[28],> 100 µM
same,TGI,[54],> 100 µM
same,TGI,[29],> 100 µM
same,TGI,[30],> 100 µM
same,TGI,[31],> 100 µM
same,TGI,[32],> 100 µM
same,TGI,[33],> 100 µM
same,TGI,[34],> 100 µM
same,TGI,[35],> 100 µM
same,TGI,[55],0.833 µM
same,TGI,[56],> 100 µM
same,TGI,[37],> 100 µM
same,TGI,[38],> 100 µM
same,TGI,[39],94.7 µM
same,TGI,[40],> 100 µM
same,TGI,[41],> 100 µM
same,TGI,[43],> 100 µM
same,TGI,[44],97.8 µM
same,TGI,[47],> 100 µM
same,TGI,[50],> 100 µM
same,TGI,[51],> 100 µM
COc1cccc2c1C(=O)c1c(O)c3c(c(O)c1C2=O)CC(O)(C(O)CO)CC3OC1CC2C(OC3COCC(C#N)N32)C(C)O1 (configuration not stated),TGI,[1],0.0282 µM
same,TGI,[2],< 0.01 µM
same,TGI,[3],> 100 µM
same,TGI,[4],0.213 µM
same,TGI,[7],< 0.01 µM
same,TGI,[8],< 0.01 µM
same,TGI,[53],0.406 µM
same,TGI,[9],0.0644 µM
same,TGI,[10],< 0.01 µM
same,TGI,[12],1.04 µM
same,TGI,[13],< 0.01 µM
same,TGI,[14],0.0432 µM
same,TGI,[57],< 0.01 µM
same,TGI,[16],< 0.01 µM
same,TGI,[17],< 0.01 µM
same,TGI,[19],0.0125 µM
same,TGI,[20],< 0.01 µM
same,TGI,[21],< 0.01 µM
same,TGI,[22],2.15 µM
same,TGI,[23],0.0139 µM
same,TGI,[24],< 0.01 µM
same,TGI,[25],< 0.01 µM
same,TGI,[26],< 0.01 µM
same,TGI,[27],< 0.01 µM
same,TGI,[28],< 0.01 µM
same,TGI,[30],< 0.01 µM
same,TGI,[32],< 0.01 µM
same,TGI,[33],4.31 µM
same,TGI,[34],1.71 µM
same,TGI,[35],0.0194 µM
same,TGI,[55],< 0.01 µM
same,TGI,[56],0.0324 µM
same,TGI,[37],> 100 µM
same,TGI,[40],< 0.01 µM
same,TGI,[41],< 0.01 µM
same,TGI,[42],0.0727 µM
same,TGI,[43],1.47 µM
same,TGI,[58],0.0144 µM
same,TGI,[45],> 100 µM
same,TGI,[46],13.5 µM
same,TGI,[47],< 0.01 µM
same,TGI,[48],< 0.01 µM
same,TGI,[49],0.13 µM
same,TGI,[50],< 0.01 µM
same,TGI,[51],< 0.01 µM
